Data set [1] deals with H1299 p53-null xenograft tumors. Description: H1299 p53-null xenograft. It is filed as in vivo, mice. From the text: Error bars illustrate ± SEM with significance determined by Multiple Student’s t-tests. […] See supplementary information for detailed description of protocol. d) Pharmacokinetic study examining the effect of co-administration of nutlin-3a and (R)-HZ05 on the plasma concentration of nutlin-3a over time. See supplementary information for detailed description of protocol. e) In vivo activity of (R)- HZ05 alone and in combination with nutlin-3 on H1299 p53-null xenograft tumors (n ≥ 6). […] In the tumor volume graph, (**) on day 4 indicates a statistical difference of Control to HZ05 and to nutlin-3a; (*) on day 7 indicates a difference between Control and nutlin-3a; and (**) on day 12 indicates a statistical difference between Control, […] 19

The next data set deals with recombinant human DHODH (Homo sapiens, UniProt Q02127). Description: Kinetic DHODH enzyme assay (3,4-dimethoxy-5-methyl-p-benzoquinone, DCIP). Also on record: made in house. The class given is biochemical. Conditions: Fig. 5a; average of three independent repeats ± SD. As for the experimental part: In Fig. 5a enzyme assays were optimized and performed with 6 nM recombinant human DHODH prepared as described. The reaction mixture for these kinetic assays consisted of 1 mM DL-dihydroorotic acid, 100 µM 3,4-dimethoxy-5-methyl-p-benzoquinone (#D9150, Sigma-Aldrich), and 100 µM DCIP in enzyme buffer. A stock solution of 20 mM DCIP was prepared in enzyme buffer and filtered through filter paper (20–25 μm pore size) just before use. Loss in absorbance by DCIP was measured at 595 nm at RT in a stepped time course (8 × 2 min, 8 × 3 min, 6 × 5 min). […] Therefore, for each concentration of inhibitor tested, a value for DHODH’s Vmax was estimated by linear regression within this time frame.

The nature of data set [2]: In vivo pharmacokinetic parameters of (R)-HZ05. Conditions: for AUC(0-inf) / Cmax / Tmax / AUC / half-life / BA (%): mice; for AUC: read-out: AUC 0-h; for half-life: read-out: t (h) (half-life) (converted). Also on record: species or system C57B1/6N mice. The protocol:
Waters Acquity UPLC (Waters Corp.) was used for all LC/MS and LC/MS/MS experiments. For chromatographic separation a general gradient was used (5 % mobile phase B to 90 % over 2 min total run) on a C18 BEH 1.7 µm column 2 × 50 mm (Waters Corp.). Mobile phase A consisted of 5 % acetonitrile 0.1 % formic acid and mobile phase B 100 % acetonitrile 0.1 % formic acid. The flow rate was 0.5 mL min-1 and 3 µL of the sample was injected. A standard curve between 3−1000 nM was prepared for each compound. […]
In vivo Pharmacokinetic Parameter Determination
(R)-HZ05 was formulated for subcutaneous and oral administration at 5 mg mL-1 in 20 % hydroxypropyl-β-cyclodextrin in PBS and formulated at 5 mg mL-1 diluted in physiological NaCl. […]
Blood was collected […]
in EDTA tubes from three mice per time point and stored on ice with plasma separated within 30 min by centrifugation at 2000 g and stored at –80 ° C until analysis at 0.08, 0.25, 0.5, 1, 2, 3, 4, 6 and 24 h post administration. […] internal standard (9 nM warfarin) was added to each plasma sample and each sample was shaken at RT for 10 min followed by centrifugation at 2000 g for 30 min at 4 °C. […] of sample was injected into an Acquity UPLC coupled to a triple quadrupole mass spectrometer (Waters) operated in MRM mode with positive electrospray ionization. MRM transition 381.09 > […]
CV and 40 V for CE) as a qualifier ion. Transition for internal standard was 309.16 > 163.005 (22 V for CV and 14 V for CE). Ion source conditions were: capillary voltage, 2000 V; desolvation temperature, 500 °C; desol vation gas flow rate, 1000 L h-1. Separation was conducted using a BEH C18 column (2.1 × 50 mm, 1.7 µm, Waters) using a linear gradient: 0 – 0.5 min, 5 % B; […], 100 % B, 1.61–2.00 min, 5 % B. Mobile phase A was 5 % acetonitrile with 0.1 % formic acid and B […]
All animal experimentation was carried out by Sweden
Contract In vivo Design AB in compliance with 2010/63/EU directive and approved by Stockholms Norra Djurförsöksetiska Nämnd (laboratory animal eth ical committee Stockholm) with the approval number N61/15. Any single plasma concentration value deviated by >10 times from the other two values was excluded from the pharmacokinetic evaluation, but was included in the figure. […]

Setting [3] is: female, C57B1/6N, mouse, plasma, iv, i.v, dose 5 mg kg-1.
[4] abbreviates: female, C57B1/6N, mouse, plasma, po, p.o, dose 50 mg kg-1.
Setting [5] is: female, C57B1/6N, mouse, plasma, sc, s.c, dose 50 mg kg-1.

The values that follow come from publication PMC5856786, “A DHODH inhibitor increases p53 synthesis and enhances tumor cell killing by p53 degradation blockage” (Nature Communications, 2018).

The structures appear in SMILES notation. Where two headings read alike, the source gives them in different places.

recombinant human DHODH, sequence (Q02127 29-395 limits assumed): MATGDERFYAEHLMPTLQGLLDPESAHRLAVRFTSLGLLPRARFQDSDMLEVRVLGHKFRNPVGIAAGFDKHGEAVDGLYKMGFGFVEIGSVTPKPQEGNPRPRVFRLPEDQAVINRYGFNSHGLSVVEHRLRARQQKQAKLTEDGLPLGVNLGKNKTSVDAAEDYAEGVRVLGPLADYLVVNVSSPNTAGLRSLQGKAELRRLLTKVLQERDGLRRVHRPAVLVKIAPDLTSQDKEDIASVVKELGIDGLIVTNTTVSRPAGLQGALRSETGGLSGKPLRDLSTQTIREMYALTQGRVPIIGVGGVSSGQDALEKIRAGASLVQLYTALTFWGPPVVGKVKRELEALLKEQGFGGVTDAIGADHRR

In the case of `O=C(N[C@@H]1CCCc2c1cnn2-c1ccccc1F)c1onc2c1CCCC2` [(R)-HZ05], the “synergy with nutlin-3a in p53-null xenograft” value in data set [1] was “no synergy”. Moreover, the IC50 (usually the concentration at which inhibition is half-maximal) at recombinant human DHODH is 11 ± 0.94 nM. Also, the clearance – broadly, the volume of plasma or blood freed of the substance per unit of time – in data set [2] (female, C57B1/6N, mouse, plasma, iv, 5 mg kg-1, mice, i.v) is 90 mL/min/kg. The Vd in data set [2] (female, C57B1/6N, mouse, plasma, iv, 5 mg kg-1, mice, i.v, read-out: Vd) worked out at 8.3 L/kg; in data set [2] (female, C57B1/6N, mouse, plasma, iv, 5 mg kg-1, mice, i.v, read-out: Vss), 3.6 L/kg. Further, the AUC(0-inf) (as a rule, the area under the concentration-time curve extrapolated to infinity) in data set [2] (setting [3]) amounted to 2.4 µM·h; in data set [2] (setting [4]) it was 9.9 µM·h; in data set [2] (setting [5]) it was 30 µM·h. Also, the peak concentration (Cmax) – broadly, the peak of the concentration-time curve – in data set [2] (setting [3]) is 6.1 µM; in data set [2] (setting [4]), 7.5 µM; in data set [2] (setting [5]), 14.9 µM. Besides, the Tmax – broadly, the time from dosing to the highest level – is 4.8 min in data set [2] (setting [3]), 15 min in data set [2] (setting [4]) and 30 min in data set [2] (setting [5]). Further, the figures for the AUC in data set [2] (setting [3]), in data set [2] (setting [4]) and in data set [2] (setting [5]) were 2.4 µM·h, 9.9 µM·h and 30 µM·h, respectively. The half-life – broadly, how long it takes for the measured level to halve – in data set [2] (setting [3]) is 1.1 h; in data set [2] (setting [4]), 2.9 h; in data set [2] (setting [5]), 2.5 h. The “BA (%)” value in data set [2] (p.o, dose 50 mg kg-1) is reported as 41%; in data set [2] (s.c, dose 50 mg kg-1), more than 100%.
